Experimental data reported in article PMC9774446, “Antifungal and Anti-Inflammatory Activities of PS1-2 Peptide against Fluconazole-Resistant Candida albicans” (Antibiotics, 2022).
In brackets after ≈: the same amount, converted by molar mass. Where two headings read alike, the source gives them in different places. No end group written: not given here.

Columns and labels:
[1] = tested on: C. albicans CCARM 14007-infected mouse lung; format: in vivo, BALB/c mice
Excerpt: Animal study was approved by the Institutional Animal Care and Use Committee (IACUC) in Sunchon National University, South Korea (SCNU IACUC-2019-10). […] The mice anesthetized by inhalation of isoflurane (5%: induction, 2%: maintenance) in pure oxygen were intratracheally instilled with C. albicans cells. One hour after exposure, each peptide sample was intratracheally administered at the indicated dose, and the mice were monitored for signs of morbidity for 6 days. The lungs of mice euthanized by CO2 inhalation were excised and fixed in 4% paraformaldehyde. The fixed tissues were dehydrated using a series of ethanol solutions (50–100%) and embedded in paraffin. Paraffin-embedded tissues were sectioned at a thickness of 5 µm (Leica microtome, Deerfield, IL, USA), and the histopathology of the lung tissues was performed using alcian blue without/with eosin, and hematoxylin and eosin (H&E) staining.
TNF-α and NO production levels in blood collected from mouse hearts were determined using mouse anti-TNF-α microplate ELISA kit (R&D Systems, Minneapolis, MN, USA) and Griess reagent kit (Invitrogen, Carlsbad, CA, USA), respectively, followed by the manufacturer’s instructions.

[2] = tested on: RAW 264.7 cells stimulated with C. albicans CCARM 14007; test: Anti-inflammatory assay in co-culture of RAW 264.7 and C. albicans; format: cell-based, murine; conditions: fluconazole 128 µM or PS1-2 32 µM, 24 h
Description: RAW 264.7 cells were cultured in DMEM supplemented with 10% FBS, 1% penicillin/streptomycin, and GlutaMax at 5% CO2 at 37 °C. The RAW 264.7 cells (2 × 10^5 cells/mL) suspended with RPMI-1640 medium were seeded into 12-well plates and incubated for 24 h. […] After 24 h incubation, cells were washed and harvested in PBS. A total of 1000 µL of blocking solution (5% bovine serum albumin with PBS) was added to each sample, incubated at 25 °C for 30 min, removed by centrifugation at 1000× g, and then incubated with the primary antibody (anti-TLR2, or anti-TNF-α; Abcam, Cambridge, UK, 1:200 dilution) for 1 h. The cells were washed with PBS and incubated with a secondary antibody (fluorescein isothiocyanate-conjugated goat anti-mouse IgG, 1:500 dilution; Santa Cruz Biotechnology) for 1 h. Cells expressing TLR2 were measured using an Attune NxT acoustic focusing cytometer. TNF-α expression was visualized using a confocal laser-scanning microscope (CLSM, A1R HD 25, Nikon, Tokyo, Japan).

[3] = tested on: C. albicans KCTC 7270; test: Drug-resistance assay (MFC over six passages); format: cell-based; conditions: Candida albicans
Description: To investigate the induction of drug resistance, C. albicans KCTC 7270 cells were prepared as for antifungal assay described above, at concentrations ranging from 1 to 128 μM. After 24 h incubation, MFCs were determined by the above method, and the surviving cells at half MFCs of each sample were treated with the diluted samples, repeating the process six times.

[4] = tested on: Candida albicans CCARM 14007 (fluconazole-resistant strain); test: microbe, parasite or virus in culture; format: cell-based
Excerpt: […] The lowest drug concentration at which no more than one colony was visible on the agar plate, was defined as a minimum fungicidal concentration (MFC).

[5] = cited from earlier work
Description: Alterations in the killing kinetic pattern under low salt (SP) and high salt (PBS) conditions can predict the interaction and mode of action of peptides on yeast. Because propidium (PI) dye can stain the live cells only temporarily, it will be released ... || To investigate the proteolytic stability of the peptides, the peptide solutions were pre-treated with trypsin for 40 min and added to C. albicans cells. After 24 h of incubation, cells were spread on agar plates (Figure 4).

[6] = tested on: C. albicans CCARM 14007; conditions: CCARM 14007, pH 7.2
Description: C. albicans CCARM 14007 cells grown to the mid-log phase at 28 °C were suspended in 10 mM sodium phosphate (pH 7.2) buffer or PBS (pH 7.2) buffer with 10% YPD media at a density of 5 × 10^5 cells/mL. […] The cells were analyzed by fluorescence-activated cell sorting (FACS) system (Attune NxT acoustic focusing cytometer).

OC(Cn1cncn1)(Cn1cncn1)c1ccc(F)cc1F [Fluconazole, fluconazole]
inhibition of TNF-α secretion in whole blood serum ([1]; C. albicans-infected mice, 2 mg/kg intratracheal 1 h after infection, 6 days, ELISA): approximately 65%
NO production in whole blood serum (in words) ([1]; C. albicans-infected mice, 2 mg/kg intratracheal 1 h after infection, 6 days, Griess reagent): did not inhibit NO production
lung histology of infected mice (in words) ([1]; C. albicans-infected mice, 2 mg/kg intratracheal, H&E and alcian blue staining): an increase in the release of mucins
TNF-α expression (in words) ([2]; CLSM): Overexpression of TNF-α
macrophage morphology (in words) ([2]; with C. albicans): Lamellipodia extension and spreading of cells
MFC ([3]; KCTC7270, read-out: MFC after six passages, 28 °C, surviving cells at half MFC re-treated each passage): 2050 µM (≈ 627 µg/mL)
MFC ([3]; KCTC7270, read-out: MFC after six passages, 37 °C, surviving cells at half MFC re-treated each passage): 4100 µM (≈ 1250 µg/mL)
MFC ([3]; KCTC7270, read-out: MFC at first passage, 28 °C, drug-sensitive C. albicans KCTC 7270): 128 µM (≈ 39.2 µg/mL)
MFC ([3]; KCTC7270, read-out: MFC at first passage, 37 °C, drug-sensitive C. albicans KCTC 7270): 128 µM (≈ 39.2 µg/mL)
MFC ([4]; 28 °C, 6 mM CaCl2 (pH 5.5), 24 h): >128 µM
MFC ([4]; 28 °C, 6 mM MgCl2 (pH 5.5), 24 h): >128 µM
MFC ([4]; 28 °C, 24 mM KCl (pH 5.5), 24 h): >128 µM
MFC ([4]; 28 °C, pH 5.5, 10 mM sodium phosphate buffer containing 10% media, 24 h): >128 µM
MFC ([4]; 28 °C, pH 6.0, 10 mM sodium phosphate buffer containing 10% media, 24 h): >128 µM
MFC ([4]; 28 °C, pH 7.2, 10 mM sodium phosphate buffer containing 10% media, 24 h): >128 µM
MFC ([4]; 37 °C, 6 mM CaCl2 (pH 5.5), 24 h): >128 µM
MFC ([4]; 37 °C, 6 mM MgCl2 (pH 5.5), 24 h): >128 µM
MFC ([4]; 37 °C, 24 mM KCl (pH 5.5), 24 h): >128 µM
MFC ([4]; 37 °C, 150 mM NaCl (pH 5.5), 24 h): >128 µM
MFC ([4]; 37 °C, pH 5.5, 10 mM sodium phosphate buffer containing 10% media, 24 h): >128 µM
MFC ([4]; Candida albicans, CCARM14007, 24 h, pH 5.5): > 128 µM
MFC ([4]; Candida albicans, CCARM14007, 24 h, pH 6): > 128 µM
MFC ([4]; Candida albicans, CCARM14007, 24 h, pH 7.2): > 128 µM

KWLKKWLKKWLK-NH2 [PS1-6]
toxicity / cytotoxicity (in words) [5]: significant toxicity
MFC ([4]; CCARM 14007, 24 h, pH 6): 16 µM
MFC ([4]; CCARM 14007, 24 h, pH 7.2): 16 µM

KWYKKWYKKWYK-NH2 [PS1-2]
lung histology of non-infected mice (in words) ([1]; mouse, in vivo, 2 mg/kg): did not induce inflammation
toxicity / cytotoxicity (in words) [5]: significantly lower than that of PS1-6
MFC ([4]; CCARM 14007, 24 h, pH 6): 32 µM
MFC ([4]; CCARM 14007, 24 h, pH 7.2): 32 µM
cells killed (PI-positive cells) [6]: 87%

RWYRRWYRRWYR-NH2 [PS1-5]
MFC ([4]; CCARM 14007, 24 h, pH 6): 16 µM
MFC ([4]; CCARM 14007, 24 h, pH 7.2): 32 µM
